Test results from patent publication US9023789B2, “Amylin analogs and pharmaceutical compositions thereof” (Novo Nordisk A/S, priority 2012, dated 2015).
Numbered stars: 1 amine (or outer) side, 2 acyl side, 3 side chain; on linkers, the order of the positions; unused ones are H or OH. Bridge positions count the residues as written; N and C are the ends. Side chains are listed from the residue outwards. Peptide text beside a SMILES is read from it. * marks the point of attachment. C20 diacid = O=C(O)CCCCCCCCCCCCCCCCCCC(=O)*; γGlu = O=C(O)[C@H](CCC(=O)[*:2])N[*:1]; AEEA = NCCOCCOCC(=O)O

Columns and labels:
[1] = ASSAY (III) ThT fibrillation assay for physical stability; format: physicochemical
Outline: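 Formulations with 1 μM ThT, pH adjusted as required, incubated at 37 °C with 960 rpm orbital shaking; fluorescence (ex 444/em 485 nm) read every 20 min. Fibrillation reported as mean ThT fluorescence ± SD of 4–8 replicates at time points; polypeptide concentration measured by reverse-phase HPLC before and after, post-centrifugation.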

[2] = target: T1, human amylin receptor (membranes from Amylin 3(a)/CRE-luc cells) (Homo sapiens, UniProt O60896+P30988); experiment: ASSAY (V) binding to the human amylin receptor (SPA, 125I-rat amylin);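 note: competition binding of cell membranes (35 ng/µL) mixed with SPA beads in 384-well plates at 40 µL total volume, read by scintillation counting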
T1 construct: expressed in transfected cells
T1 sequence (P30988 25-474): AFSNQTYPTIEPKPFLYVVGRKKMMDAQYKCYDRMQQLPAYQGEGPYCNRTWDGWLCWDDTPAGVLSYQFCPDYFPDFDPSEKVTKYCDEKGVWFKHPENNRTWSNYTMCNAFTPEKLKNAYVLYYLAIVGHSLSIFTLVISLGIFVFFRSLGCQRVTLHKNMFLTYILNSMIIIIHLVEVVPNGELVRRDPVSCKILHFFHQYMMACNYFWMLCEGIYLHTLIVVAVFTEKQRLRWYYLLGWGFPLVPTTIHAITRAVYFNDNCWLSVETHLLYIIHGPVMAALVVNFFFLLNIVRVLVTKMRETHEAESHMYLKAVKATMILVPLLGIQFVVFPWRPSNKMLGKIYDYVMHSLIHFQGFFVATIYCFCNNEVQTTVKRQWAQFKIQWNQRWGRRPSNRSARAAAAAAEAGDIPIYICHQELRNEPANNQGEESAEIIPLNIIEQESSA
T1 sequence (O60896 24-148 partner): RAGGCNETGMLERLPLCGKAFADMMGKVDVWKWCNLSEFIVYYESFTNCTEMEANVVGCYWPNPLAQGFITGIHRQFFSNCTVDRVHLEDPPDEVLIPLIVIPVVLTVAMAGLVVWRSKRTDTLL

[3] = target: T2, rat calcitonin receptor (Rattus norvegicus, UniProt P32214); experiment: ASSAY (VIII) binding to the rat calcitonin receptor; settings: Table 7, read-out: rCTR bind IC50
T2 construct: expressed in transfected cells; host or cells: BHK tk'ts 13 (transient, FuGENE 6), membranes
T2 sequence (P32214 25-479 isoform P32214-2 limits assumed): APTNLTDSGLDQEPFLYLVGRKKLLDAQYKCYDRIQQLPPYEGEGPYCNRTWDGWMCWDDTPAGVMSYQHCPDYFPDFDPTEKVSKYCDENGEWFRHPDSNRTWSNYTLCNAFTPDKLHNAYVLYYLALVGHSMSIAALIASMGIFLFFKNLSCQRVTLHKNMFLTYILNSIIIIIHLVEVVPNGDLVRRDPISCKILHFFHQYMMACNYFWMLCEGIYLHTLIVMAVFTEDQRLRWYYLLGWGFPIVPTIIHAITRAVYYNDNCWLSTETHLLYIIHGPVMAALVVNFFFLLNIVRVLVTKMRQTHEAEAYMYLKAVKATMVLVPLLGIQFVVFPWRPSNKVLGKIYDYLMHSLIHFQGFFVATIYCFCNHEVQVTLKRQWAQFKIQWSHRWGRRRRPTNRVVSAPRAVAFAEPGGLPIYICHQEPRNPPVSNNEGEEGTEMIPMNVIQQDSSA
Outline: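 Membranes were prepared from BHK tk′ts 13 cells transiently transfected with rat calcitonin receptor. Cells were grown in DMEM with 10% FBS and harvested approximately 48 hours after transfection.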

[4] = Table 5, selectivity, hCTR bind IC50 / hAmylin-R bind IC50
[5] = Table 5a, selectivity, hCTR bind IC50 / hAmylin-R bind IC50
[6] = Table 5b, selectivity, hCTR bind IC50 / hAmylin-R bind IC50
[7] = Table 5c, selectivity, hCTR bind IC50 / hAmylin-R bind IC50
[8] = Table 7, human binding selectivity, included for comparison
[9] = Table 7a (preferred compounds), human binding selectivity, included for comparison
[10] = ratio of human calcitonin receptor binding IC50 to human amylin receptor binding IC50

ThT pH 4.0 lag time (h) [1] | Ratio hCT/hAmylin binding [2, 4] | Ratio hCT/hAmylin binding [2, 5] | Ratio hCT/hAmylin binding [2, 6] | Ratio hCT/hAmylin binding [2, 7] | Ratio hCT/hAmylin binding [2, 8] | Ratio hCT/hAmylin binding [2, 9] | Ratio hCT/hAmylin binding [2, 10] | IC50 [3] | Compound
22 h | 42.6 | 42.6 | 42.6 | 42.6 | 42.6 | 42.6 | 42.6 | 5.26 nM | CC[C@H](C)[C@H](NC(=O)[C@H](C)NC(=O)CNC(=O)[C@H](Cc1ccccc1)NC(=O)[C@H](CC(N)=O)NC(=O)[C@@H]1CCCN1C(=O)[C@H](CO)NC(=O)[C@H](CO)NC(=O)[C@H](Cc1c[nH]cn1)NC(=O)[C@H](CCCNC(=N)N)NC(=O)[C@H](CC(C)C)NC(=O)[C@H](Cc1ccccc1)NC(=O)[C@H](CC(N)=O)NC(=O)[C@H](C)NC(=O)[C@H](CC(C)C)NC(=O)[C@H](CCCNC(=N)N)NC(=O)[C@H](CCC(N)=O)NC(=O)[C@@H](NC(=O)[C@H](C)NC(=O)[C@@H]1CSSC[C@H](NC(=O)[C@@H](N)CCCCNC(=O)COCCOCCNC(=O)CC[C@H](NC(=O)CCCCCCCCCCCCCCCCCCC(=O)O)C(=O)O)C(=O)N[C@@H](CC(N)=O)C(=O)N[C@@H]([C@@H](C)O)C(=O)N[C@@H](C)C(=O)N[C@@H]([C@@H](C)O)C(=O)N1)[C@@H](C)O)C(=O)N1CCC[C@H]1C(=O)N[C@@H](CO)C(=O)N1CCC[C@H]1C(=O)N[C@H](C(=O)N[C@@H](CC(N)=O)C(=O)N[C@H](C(=O)NCC(=O)N1CCC[C@H]1C(=O)N[C@@H](CC(N)=O)C(=O)N[C@H](C(=O)N[C@@H](Cc1ccc(O)cc1)C(N)=O)[C@@H](C)O)C(C)C)[C@@H](C)O [Example 56] (H-K([AEEA-γGlu-C20 diacid])CNTATCATQRLANFLRHSSPNFGAIPSPTNVGPNTY-NH2; disulfide 2-7 (inferred); N-terminus assumed)
38 h | 109.4 | 109.4 | 109.4 | 109.4 | 109.4 | 109.4 | 109.4 | 10.3 nM | CC[C@H](C)[C@H](NC(=O)[C@H](C)NC(=O)CNC(=O)[C@H](Cc1ccccc1)NC(=O)[C@H](CC(N)=O)NC(=O)[C@@H]1CCCN1C(=O)[C@H](CO)NC(=O)[C@H](CO)NC(=O)[C@H](Cc1c[nH]cn1)NC(=O)[C@H](CCCNC(=N)N)NC(=O)[C@H](CC(C)C)NC(=O)[C@H](Cc1ccccc1)NC(=O)[C@H](CC(N)=O)NC(=O)[C@H](C)NC(=O)[C@H](CC(C)C)NC(=O)[C@H](CCCNC(=N)N)NC(=O)[C@H](CCC(N)=O)NC(=O)[C@@H](NC(=O)[C@H](C)NC(=O)[C@@H]1CSSC[C@H](NC(=O)[C@@H](N)CCCCNC(=O)COCCOCCNC(=O)CC[C@H](NC(=O)CCCCCCCCCCCCCCCCCCC(=O)O)C(=O)O)C(=O)N[C@@H](CC(N)=O)C(=O)N[C@@H]([C@@H](C)O)C(=O)N[C@@H](C)C(=O)N[C@@H]([C@@H](C)O)C(=O)N1)[C@@H](C)O)C(=O)N1CCC[C@H]1C(=O)N[C@@H](CO)C(=O)N[C@@H](CO)C(=O)N[C@H](C(=O)N[C@@H](CC(N)=O)C(=O)N[C@H](C(=O)NCC(=O)N1CCC[C@H]1C(=O)N[C@@H](Cc1c[nH]cn1)C(=O)N[C@H](C(=O)N[C@@H](Cc1ccc(O)cc1)C(N)=O)[C@@H](C)O)C(C)C)[C@@H](C)O [Example 58] (H-K([AEEA-γGlu-C20 diacid])CNTATCATQRLANFLRHSSPNFGAIPSSTNVGPHTY-NH2; disulfide 2-7)
